Assay results from paper PMC7833758, “Characterization of fructooligosaccharide metabolism and fructooligosaccharide-degrading enzymes in human commensal butyrate producers” (Gut Microbes, 2021).

Target: T1, R.intestinalis-GH32 (Roseburia intestinalis, UniProt C7G9C0)
T1 construct: gene sacC; expressed from pET28a in E. coli BL21(DE3), cell-free extract; intracellular; cluster 3, only GH32 of the strain
T1 sequence (C7G9C0 1-563): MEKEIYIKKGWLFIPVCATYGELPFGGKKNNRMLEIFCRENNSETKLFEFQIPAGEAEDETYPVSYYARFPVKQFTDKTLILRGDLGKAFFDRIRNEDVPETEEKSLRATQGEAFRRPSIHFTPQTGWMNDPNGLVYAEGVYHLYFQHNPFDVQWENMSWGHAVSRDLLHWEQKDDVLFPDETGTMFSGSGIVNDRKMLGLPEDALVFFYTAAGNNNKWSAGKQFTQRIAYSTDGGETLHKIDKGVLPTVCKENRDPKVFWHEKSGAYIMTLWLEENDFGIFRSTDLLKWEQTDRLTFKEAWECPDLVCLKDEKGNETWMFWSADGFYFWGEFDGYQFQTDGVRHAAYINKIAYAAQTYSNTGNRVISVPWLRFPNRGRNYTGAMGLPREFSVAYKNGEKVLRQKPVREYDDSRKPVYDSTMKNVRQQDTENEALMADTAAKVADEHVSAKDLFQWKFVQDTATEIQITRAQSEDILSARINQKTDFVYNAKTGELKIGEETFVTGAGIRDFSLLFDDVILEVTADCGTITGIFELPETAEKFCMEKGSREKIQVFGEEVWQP
Test: degradation by E. coli cell-free extract
Assay type: biochemical

## OC[C@H]1O[C@@](CO)(OC[C@@]2(O[C@H]3O[C@H](CO)[C@@H](O)[C@H](O)[C@H]3O)O[C@H](CO)[C@@H](O)[C@@H]2O)[C@@H](O)[C@@H]1O [kestose]
  degradation by E. coli cell-free extract: cell-free extracts containing R.intestinalis-GH32

## OC[C@H]1O[C@@](CO)(OC[C@@]2(OC[C@@]3(O[C@H]4O[C@H](CO)[C@@H](O)[C@H](O)[C@H]4O)O[C@H](CO)[C@@H](O)[C@@H]3O)O[C@H](CO)[C@@H](O)[C@@H]2O)[C@@H](O)[C@@H]1O [nystose]
  degradation by E. coli cell-free extract: cell-free extracts containing R.intestinalis-GH32
